The test has as its target T1, human chemokine receptor CCR3 (Homo sapiens, UniProt P51677).
T1 construct: expressed in transfected cells; host or cells: K562 cell line (hCCR3-C1 cells), membrane preparation
T1 sequence (P51677 1-355): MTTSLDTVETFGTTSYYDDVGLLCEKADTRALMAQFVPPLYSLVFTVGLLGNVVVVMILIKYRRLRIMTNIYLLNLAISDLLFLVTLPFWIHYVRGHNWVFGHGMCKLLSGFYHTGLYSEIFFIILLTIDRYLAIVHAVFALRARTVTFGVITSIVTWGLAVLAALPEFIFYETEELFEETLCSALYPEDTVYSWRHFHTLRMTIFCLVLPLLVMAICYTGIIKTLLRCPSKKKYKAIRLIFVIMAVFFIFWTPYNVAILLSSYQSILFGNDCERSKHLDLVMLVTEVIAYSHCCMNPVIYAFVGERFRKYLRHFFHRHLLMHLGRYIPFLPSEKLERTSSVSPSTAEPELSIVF
The test is described as follows: CCR3 receptor binding assay (SPA, 125I-eotaxin-1 displacement, hCCR3-C1 K562 cell membranes). Particulars: human Eotaxin-1 at human CCR3-Rezeptor; for inhibition at 1 µM: 1 μM test compound, read-out: CCR3 % inh @ 1 μM; for Ki: dose range 0.1 to 10000 nM. As to the method:
The CCR3 receptor binding test is based on a K562 cell line (leukemia myelogenic blast cells) transfected with the human chemokine receptor CCR3 (hCCR3-C1 cells). The cell membranes were prepared by disrupting the hCCR3-C1 cells by […]. The preparation was centrifuged at 400 g 4° C. for 30 min. The supernatant was transferred into fresh tubes followed by a second centrifugation at 48000 g, 4° C. for 1 h. The membranes were re-suspended in the SPA incubation buffer (25 mM HEPES, 25 mM MgCl2 6×H2O, 1 mM CaCl2 2×H2O) without bovine serum albumin and homogenized by passing through a single use needle (Terumo, 23Gx1″). The membranes were stored in aliquots at −80° C.
The CCR3 receptor binding assay was performed in a Scintillation Proximity Assay (SPA) design with the radioligand recombinant human ^125Iodine-eotaxin-1. Cell membranes of hCCR3 C1 cells were again homogenized by passing through a single use needle (Terumo, 23Gx1″) and diluted in SPA incubation buffer in suitable concentrations (0.5-10 μg protein/well) in 96 well microtiter plates (1450-514, Perkin Elmer). The SPA assay was set up in the SPA incubation buffer with a final volume of 200 μl and final concentration of 25 mM HEPES, 25 mM MgCl2 6×H2O, 1 mM CaCl2 2×H2O and 0.1% bovine serum albumin. The SPA assay mixture contained 60 μl of the membrane suspension, 80 μl of Wheat Germ Agglutinin coated PVT beads (organic scintillator, GE Healthcare, RPNQ-0001) 0.2 mg/well), 40 μl of recombinant human ^125Jodine-eotaxin-1 (Biotrend), diluted in SPA buffer to a final concentration of 30.000 dpm per well, and 20 μl of the test compound (dissolved in DMSO dilutions). The SPA assay mixture was incubated for 2 h at room temperature. Bound radioactivity was determined with a scintillation counter (Micro Beta “Trilux”, Wallac). Included were controls for total binding (no displacer added, Bo) and non-specific binding (NSB) by adding unlabelled recombinant human Eotaxin-1 (Biotrend, Cat #300-21) or a reference compound.
Determination of the affinity of a test compound was calculated by subtraction of the non-specific binding (NSB) from the total binding (Bo) or the binding in the presence of the test compound (B) at a given compound concentration. […] The Bo-NSB value was set to 0% inhibition.
% inhibition and Ki values are (human Eotaxin-1 at human CCR3-Rezeptor): […]

In the case of `Cc1cc(CN2CCC(N3C(=O)CC[C@@H]3C(=O)Nc3cccc(C(=O)NCC(C)(C)C)c3)CC2)ccc1Cl` [Example 163], the inhibition at 1 µM turned out to be 99% and the Ki (usually a dissociation constant, usually derived from enzyme kinetics or from competition with a known ligand) came to 23 nM.

Turning to `Cc1cc(CN2CCC(N3C(=O)CC[C@H]3C(=O)NC3CCN(c4ccccn4)CC3)CC2)ccc1Cl` [Example 60], the inhibition at 1 µM worked out at 65% and the affinity corresponds to a Ki of 430 nM.

Regarding `CCOC(=O)c1sc(NC(=O)[C@H]2CCC(=O)N2C2CCN(Cc3ccc(Cl)c(C)c3)CC2)nc1C` [Example 100], the inhibition at 1 µM was determined as 100% and affinity was put at a Ki of 7 nM.

As for `CNC(=O)c1cc(NC(=O)[C@H]2CCC(=O)N2C2CCN(Cc3ccc(Cl)c(C)c3)CC2)cc(C(C)(C)C)c1` [Example 172], the inhibition at 1 µM is 95% and the Ki came to 7 nM.

Regarding `COc1ccccc1C1CCCN(C(=O)[C@H]2CCC(=O)N2C2CCN(Cc3ccc(Cl)c(C)c3)CC2)C1` (stereo partly drawn) [Example 43], the inhibition at 1 µM was 59% and the Ki turned out to be 523 nM.

Take `CNC(=O)c1cc(NC(=O)[C@H]2CCC(=O)N2C2CCN(Cc3ccc(Cl)c(C)c3)CC2)cc(C(=O)N(C)C)c1` [Example 106]: the inhibition at 1 µM was determined as 100% and the Ki turned out to be 3 nM.

For `CNC(=O)c1cccc(NC(=O)[C@H]2CCC(=O)N2C2CCN(Cc3ccc(F)c(Cl)c3)CC2)c1` [Example 203], the inhibition at 1 µM is 75% and the Ki was 237 nM.

As for `Cc1cc(CN2CCC(N3C(=O)CC[C@@H]3C(=O)N[C@H]3CC[C@H](NC(=O)Nc4ccccc4)CC3)CC2)ccc1Cl` [Example 44], the inhibition at 1 µM is 63% and the Ki was determined as 552 nM.

`Cc1cc(CN2CCC(N3C(=O)CC[C@H]3C(=O)NCc3ccccc3)CC2)ccc1Cl` [Example 46]: the inhibition at 1 µM is 44% and the inhibitory constant (Ki) worked out at 873 nM.

For `Cc1cc(CN2CCC(N3C(=O)CC[C@@H]3C(=O)Nc3cccc(C(=O)N(C)C4CC4)c3)CC2)ccc1Cl` [Example 144], the inhibition at 1 µM stood at 100% and affinity was put at a Ki of 7 nM.

Take `Cc1cc(CN2CCC(N3C(=O)CC[C@@H]3C(=O)Nc3cc(C(=O)N4CCOCC4)ccn3)CC2)ccc1Cl` [Example 160]: the inhibition at 1 µM came to 97% and the Ki amounted to 19 nM.

Regarding `Cc1cc(CN2CCC(N3C(=O)CC[C@@H]3C(=O)Nc3cc(C(=O)N(C)C)cc(-c4nnnn4C)c3)CC2)ccc1Cl` [Example 185], the inhibition at 1 µM stood at 98% and the Ki amounted to 1 nM.

As to `Cc1cc(CN2C3CCC2CC(N2C(=O)CC[C@@H]2C(=O)Nc2cccc(-c4nnnn4C)c2)C3)ccc1Cl` (stereo partly drawn) [Example 77], the inhibition at 1 µM amounted to 96% and the affinity corresponds to a Ki of 38 nM.

Turning to `Cc1cc(CN2CCC(N3C(=O)CC[C@@H]3C(=O)Nc3cccc(C(=O)N(C)C)c3)CC2)ccc1Cl` [Example 141], the inhibition at 1 µM came out at 94% and affinity was put at a Ki of 6 nM.

Consider `Cc1cc(CN2CCC(N3C(=O)CC[C@@H]3C(=O)Nc3cccc(CNC(=O)NC4CCCCC4)c3)CC2)ccc1Cl` [Example 39], for which the inhibition at 1 µM was 80% and the Ki was 227 nM.

`Cc1cc(CN2CCC(N3C(=O)N(C)C[C@H]3C(=O)Nc3cc(C(C)(C)C)no3)CC2)ccc1Cl` [Example 124]: the inhibition at 1 µM turned out to be 93% and the Ki was found to be 41 nM.

As for `CNC(=O)c1cccc(N(C)C(=O)[C@H]2CCC(=O)N2C2CCN(Cc3ccc(Cl)c(C)c3)CC2)c1` [Example 166], the inhibition at 1 µM stood at 60% and the affinity, expressed as Ki, was 905 nM.

With `Cc1cc(CN2CCC(N3C(=O)CC[C@@H]3C(=O)Nc3cccc(-c4c[nH]cn4)c3)CC2)ccc1Cl` [Example 27], the inhibition at 1 µM was 96% and the inhibitory constant (Ki) came out at 28 nM.

As to `Cc1cc(CN2CCC(N3C(=O)CC[C@@H]3C(=O)Nc3cccc(-c4cnco4)c3)CC2)ccc1Cl` [Example 28], the inhibition at 1 µM amounted to 97% and affinity was put at a Ki of 29 nM.

For `CCn1cc(NC(=O)[C@H]2CCC(=O)N2C2CCN(Cc3ccc(Cl)c(C)c3)CC2)cc1C(=O)N1CCCC1` [Example 164], the inhibition at 1 µM is 96% and the Ki was found to be 24 nM.

Take `COc1cccc2c1CN(C(=O)[C@@H]1CCC(=O)N1C1CCN(Cc3ccc(Cl)c(C)c3)CC1)CC2` [Example 55]: the inhibition at 1 µM was determined as 78% and the affinity corresponds to a Ki of 235 nM.

For the compound `CCn1cc(NC(=O)[C@H]2CCC(=O)N2C2CCN(Cc3ccc(Cl)c(C)c3)CC2)cc1C(=O)NC` [Example 155], the inhibition at 1 µM turned out to be 98% and the Ki stood at 15 nM.

For `Cc1cc(CN2CCC(N3C(=O)CC[C@@H]3C(=O)Nc3cc(C(=O)N(C)C)cc(C(C)C)n3)CC2)ccc1Cl` [Example 182], the inhibition at 1 µM was 99% and affinity was put at a Ki of 4 nM.

As to `CCCCc1cc(C(=O)N(C)C)cc(NC(=O)C2CCC(=O)N2C2CCN(Cc3ccc(Cl)c(C)c3)CC2)n1` (stereo not drawn) [Example 213], the inhibition at 1 µM was found to be 66% and the affinity, expressed as Ki, was 414 nM.

Take `Cc1cc(CN2CCC(N3C(=O)CC[C@@H]3C(=O)Nc3cc(C(=O)N(C)CCO)cc(C(C)(C)C)c3)CC2)ccc1Cl` [Example 170]: the inhibition at 1 µM came to 100% and the Ki came out at 6 nM.

With `COC(=O)CC(NC(=O)[C@@H]1CCC(=O)N1C1CCN(Cc2ccc(Cl)c(C)c2)CC1)c1ccccn1` (stereo partly drawn) [Example 97], the inhibition at 1 µM worked out at 50% and the Ki was found to be 669 nM.

As for `Cc1cc(CN2CCC(N3C(=O)CC[C@@H]3C(=O)Nc3cccnc3)CC2)ccc1Cl` [Example 36], the inhibition at 1 µM came out at 80% and the Ki came to 159 nM.

As for `Cc1cc(CN2CCC(N3C(=O)CC[C@H]3C(=O)NCc3cc(C(C)C)no3)CC2)ccc1Cl` [Example 52], the inhibition at 1 µM came out at 28% and affinity was put at a Ki of 1750 nM.

Take `CCNC(=O)c1cc(NC(=O)[C@H]2CCC(=O)N2C2CCN(Cc3ccc(Cl)c(C)c3)CC2)ccc1C` [Example 165]: the inhibition at 1 µM was 90% and the inhibitory constant (Ki) turned out to be 62 nM.

Regarding `Cc1cc(CN2CCC(N3C(=O)CC[C@@H]3C(=O)N3CCc4c(cccc4C(F)(F)F)C3)CC2)ccc1Cl` [Example 65], the inhibition at 1 µM came to 57% and the affinity corresponds to a Ki of 602 nM.

Consider `COc1cccc2c1CCN(C(=O)[C@@H]1CCC(=O)N1C1CCN(Cc3ccc(Cl)c(C)c3)CC1)C2` [Example 71], for which the inhibition at 1 µM was determined as 49% and the Ki is 810 nM.

Turning to `Cc1cc(CN2CCC(N3C(=O)CC[C@@H]3C(=O)N3CCc4c(F)cccc4C3)CC2)ccc1Cl` [Example 59], the inhibition at 1 µM is 66% and the Ki was found to be 402 nM.

Turning to `Cc1cc(CN2CCC(N3C(=O)CC[C@@H]3C(=O)Nc3cccc(-c4nnnn4C)c3)CC2)ccc1Cl` [Example 1], the inhibition at 1 µM was determined as 101% and the affinity corresponds to a Ki of 4 nM.

For the compound `Cc1cc(C(=O)N2CCOCC2)cc(NC(=O)[C@H]2CCC(=O)N2C2CCN(Cc3ccc(Cl)c(C)c3)CC2)n1` [Example 140], the inhibition at 1 µM is 98% and affinity was put at a Ki of 6 nM.

As to `CN1C[C@H](C(=O)Nc2cc(C3CC3)nn2C)N(C2CCN(Cc3ccc(OC(F)(F)F)c(F)c3)CC2)C1=O` [Example 197], the inhibition at 1 µM came out at 44% and the Ki amounted to 1250 nM.

Turning to `Cc1cc(CN2CCC(N3C(=O)OC[C@H]3C(=O)Nc3cccc(C#N)c3)CC2)ccc1Cl` [Example 116], the inhibition at 1 µM is 93% and the affinity, expressed as Ki, was 47 nM.

On to `CCn1nccc1CNC(=O)[C@H]1CCC(=O)N1C1CCN(Cc2ccc(Cl)c(C)c2)CC1` [Example 41], for which the inhibition at 1 µM was 66% and the Ki amounted to 395 nM.

Regarding `Cc1cc(CN2CCC(N3C(=O)CC[C@H]3C(=O)Nc3n[nH]c4ccccc34)CC2)ccc1Cl` [Example 42], the inhibition at 1 µM is 63% and affinity was put at a Ki of 482 nM.

With `CN1C[C@H](C(=O)Nc2cc(C3CC3)nn2C)N(C2CCN(Cc3ccc(Cl)c(Cl)c3)CC2)C1=O` [Example 198], the inhibition at 1 µM was 91% and affinity was put at a Ki of 67 nM.

(Values after patent US8653075B2, “Therapeutic methods employing substituted piperidines which are CCR3 antagonists” (Boehringer Ingelheim International GmbH, priority 2009, dated 2014).)
